According to ChEMBL document CHEMBL3045979, “Synthesis and antimicrobial activities of highly functionalised novel -lactam and thiazolidine-grafted tetrahydrobenzothiophenes” (2013):

Tests used:
Format in all cases: functional
Aspergillus niger = assay: Antifungal activity against Aspergillus niger ATCC 16404 assessed as growth inhibition at 10 ug/mL after 72 hr by agar cup plate method; details: ATCC 16404, 72 h, read-out: DIZ
Aspergillus fumigatus = assay: Antifungal activity against Aspergillus fumigatus ATCC 28212 assessed as growth inhibition at 10 ug/mL after 72 hr by agar cup plate method; details: ATCC 28212, 72 h, read-out: DIZ
Escherichia coli = assay: Antibacterial activity against Escherichia coli ATCC 35218 assessed as growth inhibition at 10 ug/mL after 24 hr by agar disc diffusion method; details: ATCC 35218, 24 h, read-out: DIZ
Bacillus spizizenii = assay: Antibacterial activity against Bacillus subtilis subsp. spizizenii ATCC 6633 assessed as growth inhibition at 10 ug/mL after 24 hr by agar disk diffusion method; details: ATCC 6633, 24 h, read-out: DIZ

| SMILES | zone of inhibition at 10 µg/mL (Aspergillus niger) | zone of inhibition at 10 µg/mL (Aspergillus fumigatus) | zone of inhibition at 10 µg/mL (Escherichia coli) | zone of inhibition at 10 µg/mL (Bacillus spizizenii) |
| --- | --- | --- | --- | --- |
| CS(=O)(=O)Nc1sc2c(c1C(=O)NN1C(=O)C(Cl)C1c1coc3ccccc3c1=O)CCCC2 (stereo unspecified) | 14 mm | 7 mm | 8 mm | 6 mm |
| CS(=O)(=O)Nc1sc2c(c1C(=O)NN1C(=O)C(Cl)C1c1cc3ccccc3nc1Cl)CCCC2 (stereo unspecified) | 22 mm | 6 mm | 6 mm | 6 mm |
| CS(=O)(=O)Nc1sc2c(c1C(=O)NN1C(=O)CSC1c1ccc([N+](=O)[O-])cc1)CCCC2 (stereo unspecified) | 15 mm | 8 mm | 10 mm | 8 mm |
| CS(=O)(=O)Nc1sc2c(c1C(=O)NN1C(=O)CSC1c1ccc(Cl)cc1)CCCC2 (stereo unspecified) | 13 mm | 7 mm | 8 mm | 8 mm |
| COc1ccc(C2SCC(=O)N2NC(=O)c2c(NS(C)(=O)=O)sc3c2CCCC3)cc1 (stereo unspecified) | 14 mm | 6 mm | 11 mm | 5 mm |
| COc1ccc(C2C(Cl)C(=O)N2NC(=O)c2c(NS(C)(=O)=O)sc3c2CCCC3)cc1 (stereo unspecified) | 12 mm | 6 mm | 8 mm | 6 mm |
| CS(=O)(=O)Nc1sc2c(c1C(=O)NN1C(=O)C(Cl)C1c1ccccc1)CCCC2 (stereo unspecified) | 13 mm | 4 mm | 6 mm | 6 mm |
| CS(=O)(=O)Nc1sc2c(c1C(=O)NN1C(=O)CSC1c1ccccc1)CCCC2 (stereo unspecified) | 9 mm | 5 mm | 6 mm | 5 mm |
| O=C(O)c1cn(C2CC2)c2cc(N3CCNCC3)c(F)cc2c1=O [CIPROFLOXACIN] |  |  | 12 mm | 9 mm |
| CS(=O)(=O)Nc1sc2c(c1C(=O)NN1C(=O)C(Cl)C1c1ccccc1Cl)CCCC2 (stereo unspecified) | 15 mm | 6 mm | 7 mm | 7 mm |
| CS(=O)(=O)Nc1sc2c(c1C(=O)NN1C(=O)CSC1c1c[nH]c3ccccc13)CCCC2 (stereo unspecified) | 18 mm | 6 mm | 10 mm | 6 mm |
| CS(=O)(=O)Nc1sc2c(c1C(=O)NN1C(=O)CSC1c1cccc([N+](=O)[O-])c1)CCCC2 (stereo unspecified) | 14 mm | 6 mm | 7 mm | 7 mm |
| CS(=O)(=O)Nc1sc2c(c1C(=O)NN1C(=O)C(Cl)C1c1ccc([N+](=O)[O-])cc1)CCCC2 (stereo unspecified) | 16 mm | 6 mm | 10 mm | 8 mm |
| CS(=O)(=O)Nc1sc2c(c1C(=O)NN1C(=O)C(Cl)C1c1ccc(Cl)cc1)CCCC2 (stereo unspecified) | 13 mm | 5 mm | 9 mm | 8 mm |
| CS(=O)(=O)Nc1sc2c(c1C(=O)NN1C(=O)C(Cl)C1c1c[nH]c3ccccc13)CCCC2 (stereo unspecified) | 12 mm | 7 mm | 9 mm | 7 mm |
| COc1ccc(C2SCC(=O)N2NC(=O)c2c(NS(C)(=O)=O)sc3c2CCCC3)cc1OC (stereo unspecified) | 12 mm | 6 mm | 7 mm | 6 mm |
| CS(=O)(=O)Nc1sc2c(c1C(=O)NN1C(=O)CSC1c1cc3ccccc3nc1Cl)CCCC2 (stereo unspecified) | 19 mm | 8 mm | 8 mm | 6 mm |
| Clc1ccccc1C(c1ccccc1)(c1ccccc1)n1ccnc1 [CLOTRIMAZOLE] | 21 mm | 20 mm |  |  |
| CS(=O)(=O)Nc1sc2c(c1C(=O)NN1C(=O)C(Cl)C1c1cccc([N+](=O)[O-])c1)CCCC2 (stereo unspecified) | 18 mm | 8 mm | 10 mm | 7 mm |
| CS(=O)(=O)Nc1sc2c(c1C(=O)NN1C(=O)CSC1c1ccccc1Cl)CCCC2 (stereo unspecified) | 20 mm | 6 mm | 11 mm | 6 mm |
| COc1ccc(C2C(Cl)C(=O)N2NC(=O)c2c(NS(C)(=O)=O)sc3c2CCCC3)cc1OC (stereo unspecified) | 21 mm | 9 mm | 8 mm | 7 mm |
| CC(=O)N1CCN(c2ccc(OCC3COC(Cn4ccnc4)(c4ccc(Cl)cc4Cl)O3)cc2)CC1 (stereo unspecified) [KETOCONAZOLE] | 25 mm | 10 mm |  |  |
| CS(=O)(=O)Nc1sc2c(c1C(=O)NN1C(=O)CSC1c1coc3ccccc3c1=O)CCCC2 (stereo unspecified) | 12 mm | 4 mm | 7 mm | 7 mm |
